Values quoted from earlier work in US11149028B2, “Methods for treating melanoma using small molecules” (NOVA SOUTHEASTERN UNIVERSITY, priority 2016, dated 2021).

Test system: PC-3 cells
Conditions: read-out: IC50, apoptotic cell death of PC-3 cells; cited from earlier work

Structure (SMILES): O=c1c(O)c(-c2ccc(O)c(O)c2)oc2cc(O)cc(O)c12 [quercetin]
- IC50: 100 µM
